pIC50: −log10 of the molar value.
What was measured:
Hepatitis B virus [1] = assay: Antiviral activity against HBV assessed as inhibition of viral surface antigen secretion; type: functional, organism-based
[2] = Selectivity index, ratio of CC50 for human HepG2(2.2.15) cells to IC50 for HBV early antigen secretion; type: functional
[3] = Selectivity index, ratio of CC50 for human HepG2(2.2.15) cells to IC50 for HBV surface antigen secretion; type: functional
Hepatitis B virus [4] = assay: Antiviral activity against HBV assessed as inhibition of viral early antigen secretion; type: functional, organism-based
[5] = Cytotoxicity against human HepG2(2.2.15) cells; type: cell-based

| SMILES | pIC50 (Hepatitis B virus [1]) | Ratio CC50/IC50 [2] | Ratio CC50/IC50 [3] | pIC50 (Hepatitis B virus [4]) | CC50 [5] [µM] |
| --- | --- | --- | --- | --- | --- |
| C[C@H](C[C@H](OC(=O)CN1C(=O)c2ccccc2C1=O)[C@@H](OC(=O)CN1C(=O)c2ccccc2C1=O)C(C)(C)O)C1=C2C[C@H](OC(=O)CN3C(=O)c4ccccc4C3=O)[C@H]3[C@@]4(C)CCC(=O)C(C)(C)[C@@H]4CC[C@]3(C)[C@@]2(C)CC1 | 2.92 | >11 | >1.2 | 3.85 | > 1500 |
| C[C@H](C[C@H](OC(=O)C1CC1)[C@@H](OC(=O)C1CC1)C(C)(C)O)C1=C2C[C@H](OC(=O)C3CC3)[C@H]3[C@@]4(C)CCC(=O)C(C)(C)[C@@H]4CC[C@]3(C)[C@@]2(C)CC1 | < 3.00 |  |  | < 3.00 | > 1000 |
| C[C@H](C[C@H](OC(=O)Cc1ccc([N+](=O)[O-])cc1)[C@@H](OC(=O)Cc1ccc([N+](=O)[O-])cc1)C(C)(C)O)C1=C2C[C@H](OC(=O)Cc3ccc([N+](=O)[O-])cc3)[C@H]3[C@@]4(C)CCC(=O)C(C)(C)[C@@H]4CC[C@]3(C)[C@@]2(C)CC1 | < 3.00 |  |  | < 3.00 | > 1000 |
| C[C@H](C[C@H](OC(=O)c1ccc(Cl)cc1Cl)[C@@H](OC(=O)c1ccc(Cl)cc1Cl)C(C)(C)O)C1=C2C[C@H](OC(=O)c3ccc(Cl)cc3Cl)[C@H]3[C@@]4(C)CCC(=O)C(C)(C)[C@@H]4CC[C@]3(C)[C@@]2(C)CC1 | < 2.92 |  |  | < 2.92 | > 1200 |
| C=C(C)[C@H](OC(=O)COC(C)=O)[C@H](C[C@@H](C)[C@]12CC[C@@]3(C)[C@@]1(C[C@H](OC(=O)COC(C)=O)[C@H]1[C@@]4(C)CCC(=O)C(C)(C)[C@@H]4CC[C@@]13C)O2)OC(=O)COC(C)=O | 4.29 |  | >31 | < 2.80 | > 1600 |
| CCCCC(=O)O[C@@H](C[C@@H](C)C1=C2C[C@H](OC(=O)CCCC)[C@H]3[C@@]4(C)CCC(=O)C(C)(C)[C@@H]4CC[C@]3(C)[C@@]2(C)CC1)[C@@H](OC(=O)CCCC)C(C)(C)O | < 2.89 |  |  | < 2.89 | > 1300 |
| CCCCCCCC(=O)O[C@@H](C[C@@H](C)C1=C2C[C@H](OC(=O)CCCCCCC)[C@H]3[C@@]4(C)CCC(=O)C(C)(C)[C@@H]4CC[C@]3(C)[C@@]2(C)CC1)[C@@H](OC(=O)CCCCCCC)C(C)(C)O | < 3.22 |  |  | < 3.22 | > 600 |
| C[C@H](C[C@H](OC(=O)CCC1CCCCC1)[C@@H](OC(=O)CCC1CCCCC1)C(C)(C)O)C1=C2C[C@H](OC(=O)CCC3CCCCC3)[C@H]3[C@@]4(C)CCC(=O)C(C)(C)[C@@H]4CC[C@]3(C)[C@@]2(C)CC1 | < 3.09 |  |  | < 3.09 | > 810 |
| C[C@H](C[C@H](OC(=O)CCOc1ccccc1)[C@@H](OC(=O)CCOc1ccccc1)C(C)(C)O)C1=C2C[C@H](OC(=O)CCOc3ccccc3)[C@H]3[C@@]4(C)CCC(=O)C(C)(C)[C@@H]4CC[C@]3(C)[C@@]2(C)CC1 | < 3.02 |  |  | < 3.02 | > 950 |
| C=C(C)[C@H](OC(=O)COCC)[C@H](C[C@@H](C)[C@]12CC[C@@]3(C)[C@@]1(C[C@H](OC(=O)COCC)[C@H]1[C@@]4(C)CCC(=O)C(C)(C)[C@@H]4CC[C@@]13C)O2)OC(=O)COCC | 4.70 |  | >90 | < 2.74 | > 1800 |
| C=C(C)[C@H](OC(=O)COC)[C@H](C[C@@H](C)[C@]12CC[C@@]3(C)[C@@]1(C[C@H](OC(=O)COC)[C@H]1[C@@]4(C)CCC(=O)C(C)(C)[C@@H]4CC[C@@]13C)O2)OC(=O)COC | 4.36 |  | >29 | < 2.89 | > 1300 |
| COCC(=O)O[C@@H](C[C@@H](C)C1=C2C[C@H](OC(=O)COC)[C@H]3[C@@]4(C)CCC(=O)C(C)(C)[C@@H]4CC[C@]3(C)[C@@]2(C)CC1)[C@@H](OC(=O)COC)C(C)(C)O | 3.85 |  | 2.9 | < 3.40 | 400 |
| C[C@H](C[C@H](OC(=O)c1ccccc1I)[C@@H](OC(=O)c1ccccc1I)C(C)(C)O)C1=C2C[C@H](OC(=O)c3ccccc3I)[C@H]3[C@@]4(C)CCC(=O)C(C)(C)[C@@H]4CC[C@]3(C)[C@@]2(C)CC1 | < 2.82 |  |  | < 2.82 | > 1500 |
| C[C@H](C[C@H](OC(=O)c1ccc(Cl)cc1)[C@@H](OC(=O)c1ccc(Cl)cc1)C(C)(C)O)C1=C2C[C@H](OC(=O)c3ccc(Cl)cc3)[C@H]3[C@@]4(C)CCC(=O)C(C)(C)[C@@H]4CC[C@]3(C)[C@@]2(C)CC1 | < 3.05 |  |  | < 3.05 | > 900 |
| C=C(C)[C@H](OC(=O)CCCC)[C@H](C[C@@H](C)C1=C2C[C@H](OC(=O)CCCC)[C@H]3[C@@]4(C)CCC(=O)C(C)(C)[C@@H]4CC[C@]3(C)[C@@]2(C)CC1)OC(=O)CCCC | < 3.04 |  |  | < 3.04 | > 920 |
| C[C@H](C[C@H](OC(=O)/C=C/c1ccccc1Cl)[C@@H](OC(=O)/C=C/c1ccccc1Cl)C(C)(C)O)C1=C2C[C@H](OC(=O)/C=C/c3ccccc3Cl)[C@H]3[C@@]4(C)CCC(=O)C(C)(C)[C@@H]4CC[C@]3(C)[C@@]2(C)CC1 | 3.02 |  | >1.3 | < 2.89 | > 1300 |
| C[C@H](C[C@H](OC(=O)C1CCCC1)[C@@H](OC(=O)C1CCCC1)C(C)(C)O)C1=C2C[C@H](OC(=O)C3CCCC3)[C@H]3[C@@]4(C)CCC(=O)C(C)(C)[C@@H]4CC[C@]3(C)[C@@]2(C)CC1 | < 2.96 |  |  | < 2.96 | > 1100 |
| C/C=C/C=C/C(=O)O[C@@H](C[C@@H](C)C1=C2C[C@H](OC(=O)/C=C/C=C/C)[C@H]3[C@@]4(C)CCC(=O)C(C)(C)[C@@H]4CC[C@]3(C)[C@@]2(C)CC1)[C@@H](OC(=O)/C=C/C=C/C)C(C)(C)O | < 3.05 |  |  | < 3.05 | > 900 |
| C[C@H](C[C@H](OC(=O)CC(C)(C)C)[C@@H](OC(=O)CC(C)(C)C)C(C)(C)O)C1=C2C[C@H](OC(=O)CC(C)(C)C)[C@H]3[C@@]4(C)CCC(=O)C(C)(C)[C@@H]4CC[C@]3(C)[C@@]2(C)CC1 | < 2.92 |  |  | < 2.92 | > 1200 |
| COCC(=O)O[C@@H](C[C@@H](C)[C@]12CC[C@@]3(C)[C@@]1(C[C@H](OC(=O)COC)[C@H]1[C@@]4(C)CCC(=O)C(C)(C)[C@@H]4CC[C@@]13C)O2)[C@@H](OC(=O)COC)C(C)(C)OC(=O)COC | 3.96 |  | >7.3 | < 2.80 | > 800 |
| C[C@H](C[C@H](OC(=O)COc1ccccc1)[C@@H](OC(=O)COc1ccccc1)C(C)(C)O)C1=C2C[C@H](OC(=O)COc3ccccc3)[C@H]3[C@@]4(C)CCC(=O)C(C)(C)[C@@H]4CC[C@]3(C)[C@@]2(C)CC1 | < 2.89 |  |  | < 2.89 | > 1300 |
| CC(C)CC(=O)O[C@@H](C[C@@H](C)C1=C2C[C@H](OC(=O)CC(C)C)[C@H]3[C@@]4(C)CCC(=O)C(C)(C)[C@@H]4CC[C@]3(C)[C@@]2(C)CC1)[C@@H](OC(=O)CC(C)C)C(C)(C)O | < 2.92 |  |  | < 2.92 | > 1200 |
| C[C@H](C[C@H](OC(=O)C1CCCCC1)[C@@H](OC(=O)C1CCCCC1)C(C)(C)O)C1=C2C[C@H](OC(=O)C3CCCCC3)[C@H]3[C@@]4(C)CCC(=O)C(C)(C)[C@@H]4CC[C@]3(C)[C@@]2(C)CC1 | < 3.10 |  |  | < 3.10 | > 800 |
| CC(C)CCC(=O)O[C@@H](C[C@@H](C)C1=C2C[C@H](OC(=O)CCC(C)C)[C@H]3[C@@]4(C)CCC(=O)C(C)(C)[C@@H]4CC[C@]3(C)[C@@]2(C)CC1)[C@@H](OC(=O)CCC(C)C)C(C)(C)O | < 3.05 |  |  | < 3.05 | > 900 |
| CCC(CC)C(=O)O[C@@H](C[C@@H](C)C1=C2C[C@H](OC(=O)C(CC)CC)[C@H]3[C@@]4(C)CCC(=O)C(C)(C)[C@@H]4CC[C@]3(C)[C@@]2(C)CC1)[C@@H](OC(=O)C(CC)CC)C(C)(C)O | < 2.96 |  |  | < 2.96 | > 1100 |
| C=C(C)[C@H](OC(=O)COC(C)=O)[C@H](C[C@@H](C)C1=C2C[C@H](OC(=O)COC(C)=O)[C@H]3[C@@]4(C)CCC(=O)C(C)(C)[C@@H]4CC[C@]3(C)[C@@]2(C)CC1)OC(=O)COC(C)=O | > 4.49 |  |  | > 4.49 | < 30 |
| C=C(C)[C@H](OC(=O)CC(C)C)[C@H](C[C@@H](C)C1=C2C[C@H](OC(=O)CC(C)C)[C@H]3[C@@]4(C)CCC(=O)C(C)(C)[C@@H]4CC[C@]3(C)[C@@]2(C)CC1)OC(=O)CC(C)C | < 2.92 |  |  | < 2.92 | > 1200 |
| C/C=C/C(=O)O[C@@H](C[C@@H](C)C1=C2C[C@H](OC(=O)/C=C/C)[C@H]3[C@@]4(C)CCC(=O)C(C)(C)[C@@H]4CC[C@]3(C)[C@@]2(C)CC1)[C@@H](OC(=O)/C=C/C)C(C)(C)O | < 3.07 |  |  | < 3.07 | > 850 |

Reference: ChEMBL document CHEMBL1153983, “Anti-HBV agents. Part 2: synthesis and in vitro anti-hepatitis B virus activities of alisol A derivatives” (Bioorg Med Chem Lett, 2009)
